Source: US9980943B2, “Methods of treating muscular dystrophy” (BOARD OF REGENTS OF THE NEVADA SYSTEM OF HIGHER EDUCATION, …, priority 2013, dated 2018)
Where two headings read alike, the source gives them in different places.

System: α7 integrin (LacZ reporter in α7LacZ+/− myoblasts)
Assay: qHTS of the LOPAC library and MLSMR (online screen, α7LacZ+/− myoblasts)
Details: for activation at 0.307 µM / activation at 1.53 µM / activation at 7.66 µM / activation at 38.3 µM / Emax / EC50: Mus musculus, Myoblast; for activation at 0.307 µM: read-out: Activity at 0.307 uM [%] **; for activation at 1.53 µM: read-out: Activity at 1.530 uM [%] **; for activation at 7.66 µM: read-out: Activity at 7.660 uM [%] **; for activation at 38.3 µM: read-out: Activity at 38.30uM [%] **; for EC50: read-out: Fit LogAC50 (converted)
[1] = 48 h, read-out: Fit Infinite Activity [%]

Row | Compound | activation at 0.307 µM (48 h) | activation at 1.53 µM (48 h) | activation at 7.66 µM (48 h) | activation at 38.3 µM (48 h) | Emax [1] | EC50 | Emax (read-out: Max Response [%]) | Curve Description
1 | O=C(COC(=O)Cn1cnc2ccccc21)Nc1cccc([N+](=O)[O-])c1 [Compound 119] | -17.1% | -14.7% | 0.628% | 112% | 112% | 11.2 µM | 112% | –
2 | Cc1ccc(CNc2ncnc(N)c2[N+](=O)[O-])cc1 [Compound 120] | 17.8% | 33.8% | 63.4% | 97.4% | 127% | 10 µM | 97.4% | –
3 | CN(C)/C=N/c1nccc(-c2cccs2)n1 [Compound 121] | 6.86% | 8.46% | 45% | 92.6% | 97.8% | 8.91 µM | 92.6% | –
4 | Cc1cc(N2CCOCC2)nc2ccc(N/C(S)=N/Cc3ccc4c(c3)OCO4)cc12 [Compound 122] | 2.5% | 11.5% | 54% | 107% | 128% | 10 µM | 107% | –
5 | COCCN1C=C(C(=O)OC)C(c2ccccc2Cl)C(C(=O)OC)=C1 [Compound 123] | 5.12% | 12.1% | 45.1% | 85.5% | 96.9% | – | 85.5% | –
6 | O=C(NCCCn1ccnc1)/C(=C/c1cccs1)NC(=O)c1ccco1 [Compound 124] | -19.2% | -7.39% | 35.5% | 85.9% | 103% | – | 85.9% | –
7 | N=C(NOC(=O)COc1cc(Cl)c(Cl)cc1Cl)c1ccncc1 [Compound 125] | 0% | 9.26% | 50.4% | 108% | 134% | – | 108% | –
8 | Cc1ccc(-c2csc(Nc3ccc(C(=O)O)cc3)[n+]2Cc2ccccc2)cc1 [Compound 126] | 5.18% | 19% | 58.1% | 102% | 125% | – | 102% | –
9 | Cc1cc(-c2ccccc2)n2nc(N)nc2n1 [Compound 127] | -20% | -16.1% | -2.95% | 151% | 152% | – | 151% | –
10 | O=C(N/N=C/c1cn[nH]c1-c1ccc(F)cc1)c1ccncc1 [Compound 128] | 17.3% | 12.6% | 22.6% | 152% | 154% | – | 152% | –
11 | CC(/C=C(\O)c1ccccc1)=N\c1ccc(Br)c(Cl)c1 [Compound 130] | 7.18% | 9.18% | 26.1% | 127% | 128% | – | 127% | –
12 | Cc1ccc(NC(=O)COc2ccccc2CNC(C)(C)CC(C)(C)C)cc1 [Compound 131] | 10.7% | 7.12% | 16.2% | 182% | 184% | – | 182% | –
13 | Cc1nc2c([nH]1)OC(N)=C(C#N)C21CCN(Cc2ccccc2)CC1 [Compound 132] | 11.1% | 13.8% | 23% | 133% | 133% | – | 133% | Partial
14 | O=C(CSc1nnc(C2CC2)n1C1CC1)c1cccs1 [Compound 133] | -26% | -28.4% | 5.99% | 70.2% | 73.1% | 10 µM | 70.2% | –
15 | CSc1ncccc1C(=O)OCC(=O)c1cc(C)n(C)c1C [Compound 134] | -21% | -23.9% | -0.0686% | 72.9% | 72.9% | 10 µM | 72.9% | –
16 | CCc1c(C2(O)CCCCC2)[nH]c2ncccc12 [Compound 135] | -28.5% | -29.4% | -11.2% | 62% | 61.8% | 10 µM | 62% | –
17 | O=C(Nc1ccc(S(=O)(=O)Nc2nccs2)cc1)c1ccccc1OC(F)F [Compound 137] | -19.2% | -19.4% | -1.67% | 61.8% | 61.7% | 10 µM | 61.8% | –
18 | O=C1CCc2cc(S(=O)(=O)Nc3ccc(C(F)(F)F)cc3)cc3c2N1CC3 [Compound 138] | -26.1% | -19.1% | 23.6% | 85.8% | 108% | – | 85.8% | –

Row | Compound | activation at 0.307 µM (48 h) | activation at 1.53 µM (48 h) | activation at 7.66 µM (48 h) | activation at 38.3 µM (48 h) | Emax [1] | EC50 | Emax (read-out: Max Response [%]) | Curve Description
19 | COc1ccccc1C(=O)NCC(=O)/N=N/c1c(O)n(C(C)C)c2ccccc12 [Compound 139] | 15.2% | 14.6% | 25% | 81.7% | 82% | – | 81.7% | –
20 | Cn1ccc(C(=O)Nc2cccnc2Cl)n1 [Compound 140] | -2.76% | -4.96% | 22.8% | 76% | 77.9% | 10 µM | 76% | –
21 | COC(=O)c1ccc(C2C(C(=O)c3cc4ccccc4o3)=C(O)C(=O)N2CCN2CCOCC2)cc1 (centres unmarked) [Compound 141] | -17.2% | -18.3% | 2.6% | 82.7% | 82.8% | 10 µM | 82.7% | –
22 | COc1cc(NC(=O)C2C3C=CC(C3)C2C(=O)O)ccc1NC(=O)c1ccccc1 (centres unmarked) [Compound 142] | -17.1% | -18.7% | 16.8% | 68.9% | 71.2% | – | 68.9% | –
23 | COCc1c(C(=O)N/N=C(\C)c2ccc(OCc3ccccc3)cc2)nnn1-c1nonc1N [Compound 143] | 4.28% | 4.88% | 22.4% | 80.8% | 81.3% | 10 µM | 80.8% | –
24 | O=C(Nc1ccc(N2CCN(C(=O)c3ccccc3F)CC2)cc1)c1cncc(Br)c1 [Compound 144] | 8.54% | 11.1% | 20.4% | 103% | 104% | – | 103% | –
25 | COc1cc(NC(=O)CN(C)S(=O)(=O)c2ccc3c(c2)CC(C)N3C(C)=O)cc(OC)c1OC (centres unmarked) [Compound 145] | 0.302% | 0.181% | 15.7% | 70.5% | 70.5% | 10 µM | 70.5% | –
26 | CC(=O)c1ccc(N(C(=O)CNC(=O)c2ccco2)C(C(=O)NC2CCCC2)c2ccc(C)o2)cc1 (centres unmarked) [Compound 146] | -20.8% | -20.9% | 0% | 75.5% | 75.5% | 10 µM | 75.5% | –
27 | Cc1nnc(NC(=O)CSc2nnc(CCNC(=O)c3ccccc3F)n2C)s1 [Compound 147] | 0.45% | 2.7% | 29.1% | 84.9% | 91.2% | – | 84.9% | –
28 | COc1ccc(CCNC(=O)Cn2nnc(C(=O)Nc3ccc(Br)cc3)c2N)cc1OC [Compound 148] | -30% | -26.8% | 12.5% | 102% | 110% | – | 102% | –
29 | C/C(=N\NC(=O)c1cc(C)oc1C)c1ccc2ccccc2c1 [Compound 149] | -0.126% | 8.59% | 37% | 68% | 82.4% | – | 68% | –
30 | CC(C)c1ccc(NC(=O)CN2C(=O)c3ccccc3S2(=O)=O)cc1 [Compound 150] | 0% | 0.16% | 15.1% | 67.1% | 67.4% | 10 µM | 67.1% | –
31 | CCCCC(C(=O)NC1CCCC1)N(C(=O)c1snc(C(N)=O)c1N)c1ccc(C)cc1 (centres unmarked) [Compound 151] | -26.6% | -26% | 2.04% | 63.7% | 65.1% | 10 µM | 63.7% | –
32 | COc1ccc(S(=O)(=O)Nc2ccc(S(=O)(=O)Nc3nccs3)cc2)cc1 [Compound 152] | -6.73% | 0% | 26.3% | 67.4% | 88.8% | – | 67.4% | –
33 | Cc1cc(C(=O)Nc2cccc3ccccc23)c(C)o1 [Compound 153] | -20.8% | -14.3% | 26.2% | 66% | 74.5% | – | 66% | –
34 | CC1(C)Cc2c(cnn2-c2cccc(F)c2)C(NC(=O)CCc2cnccn2)C1 (centres unmarked) [Compound 154] | -36.1% | -14.4% | 17.9% | 38.9% | 47.5% | – | 38.9% | –
35 | Cc1c(C(=O)N2CCCCC2)c(S(=O)(=O)Nc2cccc(Br)c2)c(C)n1C [Compound 155] | -32.1% | -31.8% | -9.12% | 60.5% | 60.9% | 10 µM | 60.5% | –
